{"source": "patent US4731363A", "about": "“Thromboxane synthase inhibitors as insulin lowering agents and antiobesity agents” (priority 1986, dated 1988)", "key": {"[1]": {"target": "T1, thromboxane synthase (Guinea Pig Lung Microsomes) (Cavia porcellus, UniProt H0UT36)", "T1 construct": "The lungs were removed, freed of trachea and the majority of blood removed by rinsing the lungs with buffer; from tissue; host or cells: lungs of male guinea pigs (microsomes, 110,000 g pellet)", "T1 sequence (H0UT36 entry or part of it)": "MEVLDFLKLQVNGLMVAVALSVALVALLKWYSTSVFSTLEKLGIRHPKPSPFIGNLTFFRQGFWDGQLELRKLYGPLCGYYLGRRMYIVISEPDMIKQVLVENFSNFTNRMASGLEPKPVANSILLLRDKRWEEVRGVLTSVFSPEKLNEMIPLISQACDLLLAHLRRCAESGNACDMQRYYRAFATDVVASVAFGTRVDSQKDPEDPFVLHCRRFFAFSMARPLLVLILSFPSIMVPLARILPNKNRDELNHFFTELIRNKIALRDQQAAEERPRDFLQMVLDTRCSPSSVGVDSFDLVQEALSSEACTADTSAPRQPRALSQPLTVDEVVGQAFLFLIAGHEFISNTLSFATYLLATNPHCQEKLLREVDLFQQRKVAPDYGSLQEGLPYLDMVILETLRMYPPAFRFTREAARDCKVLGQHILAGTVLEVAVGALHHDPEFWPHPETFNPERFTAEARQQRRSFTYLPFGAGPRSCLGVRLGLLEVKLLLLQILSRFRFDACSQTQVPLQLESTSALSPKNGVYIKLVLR", "experiment": "biochemical", "conditions": "enzyme source G = Guinea Pig Lung Microsomes; read-out: IC50", "description": "In said assay procedure, microsomes from guinea pig lung or human platelets are added to an endoperoxide intermediate in prostaglandin biosynthesis and the inhibitor in phosphate buffer solution followed by incubation, extraction and determination of the extent of thromboxane synthase inhibition by TLC with radiochromatographic profile analysis. […]\nIsolation of Guinea Pig Lung Microsomes\nFour male guinea pigs (.congruent.500 g each) were sacrificed by spinal dislocation. The lungs were removed, freed of trachea and the majority of blood removed by rinsing the lungs with buffer (0.1M phosphate pH 7.5) via the pulmonary artery. The lung tissue (18.3 g total wet wt.), was then minced, suspended in three volumes of buffer and homogenized using, initially, a Brinkmann polytron homogenizer and, finally, a glass-teflon tissue grinder. The homogenate was centrifuged at 12,000 g for 1 hr. and the resultant supernatant recentrifuged at 110,000 g for 1 hr. The 110,000 g pellet was taken up in 10 ml of buffer, divided into 5×2 ml aliquots and stored at -70° until use.\nLow specific activity PGH2 (3.3 μCi/μmole) was obtained from Dr. W. E. M. Lands of the University of Michigan. PGH2 of higher specific activity (16.0 μCi/μmole) was purchased from Ran Biochemicals, Tel-Aviv, Israel.\nThe inhibitors tested were prepared as solutions (1-10 mg/ml) in 95% ethanol.\nAssay for Thromboxane Synthase\nTo a 12×75 mm tube containing [1-^14 C] PGH2 (2 μg, 0.01 μCi or 0.05 μCi) and inhibitor (1 mM final assay concentration, in 10 μl of ethanol) in 225 μl of phosphate buffer (0.1M, pH 7.5), was added to an aliquot of guinea pig lung microsomes (25 μl, containing 400 μg protein) or an aliquot of human platelet microsomes (25 μl, containing .congruent.[…] protein). The solution was incubated in a 22° water bath for 2 min.; ether (1 ml) and citric acid (25 μMoles) were added, and the tube plunged into an acetone-dry ice bath. The ether extract was transferred to a 1.0 ml Reacti-vial, and the volume reduced under nitrogen to .congruent.50 μl.\nThe extract was applied to an I.T.L.C., type SG, glass fiber sheet (Gelman Instrument Co., Ann Arbor, Mich.) and developed in isooctane; methyl ethyl ketone: acetic acid (100:19:1 or 100:9:1) (19). The sheets were air dried and scanned using a Berthold LB 2760 Radiochromatographic Scanner. In certain cases, based on the radiochromatographic profile obtained, the sheets were cut, the appropriate regions placed in scintillation vials, 10 ml of LSC cocktail (Yorktown Research, S. Hackensack, NJ) added, and the relative cpm determined."}, "[2]": {"system": "isolated perfused rat pancreas", "experiment": "Insulin secretion by isolated perfused rat pancreas", "set-up": "key: insulin AUC ratio: 1st glucose pulse / 2nd pulse with compound", "conditions": "100 μM; 16.7 mM glucose; control 1.0 ± 0.04 (n = 5)", "description": "Determination of Insulin-Secretory Activity in the Isolated Perfused Rat Pancreas\nPancreata were obtained from young adult female Charles River rats weighing from 200-300 g. The animals were anaesthesized with sodium pentobarbitol (45 mg/kg), injected intraperitoneally, and the pancreas with its intact vasculature was removed and connected to an extracorporeal perfusion apparatus.\nThe basic perfusion solution contained: 133 mM NaCl, 4.4 mM KCl, 2.5 mM MgSO4, 2.4 mM Ca gluconate, 1.5 mM KH2 PO4, 29.4 mM NaHCO3, 4% dextran and 0.2% bovine serum albumin and glucose as discussed below. The perfusion flow rate was kept constant at 4 ml/min. After a 15-20 min equilibration period, the experimental protocol was begun. The pancreatic effluent was collected in either one or four-minute fractions.\nThe perfusion was run in the following sequence:\n30 min 16.7 mM glucose-internal control\n30 min 16.7 mM glucose and test compound\n5 min 20 mM arginine-to check pancreas viability\nTest compounds were dissolved in 90% ethanol to a concentration of 25 mM and then diluted in the perfusion buffer to the desired concentration. The perfusion effluent was collected in one or four min fractions-the samples were checked immediately, aliquoted for submission to radioimmunoassay and stored at -20° C. until the time of assay. The radioimmunoassay of insulin was carried out by a back-titration method using a pure rat insulin standard.\nTo assess the inhibitory activity of the test compounds, an inhibition index was calculated. The inhibition index is derived by comparing the insulin secretion response from treated versus nontreated pancreas preparations. For each preparation, a ratio of insulin secretion was calculated from the area under the insulin secretion curve of the first pulse of 16.7 mM glucose divided by the area under the curve of the second pulse of 16.7 mM glucose containing compound."}, "[3]": {"system": "obese Zucker rats", "experiment": "Antiobesity activity in vivo in obese Zucker rats", "set-up": "species or system rat", "conditions": "16 to 18 days; for Body Weight Gain: treated minus control", "description": "Determination of Antiobesity Activity\nThromboxane synthase inhibitors were evaluated for antiobesity activity in vivo. Body weight, food intake and circulating insulin levels were monitored during periods of drug treatment. Analysis of carcass composition was performed at study termination.\nAnimals, Diets and Drug Administration\nLean and obese male and female Zucker rats bred at Hoffmann-La Roche Inc. (Nutley, NJ) were kept in wire-bottomed individual cages in light (12 hr dark and light cycles beginning at 6 p.m. and 6 a.m., respectively) and temperature-controlled (22°) rooms. All rats were fed chow diet (Ralston Purina Co., St. Louis, MO) ad libitum until one to three weeks before the start of drug treatment, at which time they were trained to consume a high glucose low fat (1% corn oil) diet which is herein referred to as G-70:1% CO. Following the one to three-week training period on G-70:1% CO, the average daily food intake was calculated, and the rats were weighed and divided into groups of four to seven rats each.\nThe control animals continued to eat the G-70:1% CO diet ad libitum, and the experimental groups were given G-70:1% CO diet containing drug (also fed ad libitum). The amount of drug added to the diet of each experimental group was based on calculations of food consumed per kg body weight using data collected at the end of the training period. […] The period of drug treatment ranged from 16 to 18 days as noted in the legends to the tables and graph. Food intake and body weight were recorded either daily or twice a week throughout the duration of the study. The amount of drug administered was calculated from the food intake per kg body weight for each experimental group. Body weight data are reported as the difference between the body weight gains of control and drug-treated animals. Food intake and insulin data are reported as percent of control.\n^a Average duration of treatment was 16 to 18 days.\n^b Body weight gain was computed by taking the difference between the\nweight gain of treated and control rats."}}, "data": [{"smiles": "CC(=O)c1ccc(-n2ccnc2)cc1", "note": "[1-[4-(1H--imidazol-1-yl)phenyl]ethanone, 1-[4-(1H-imidazol-1-yl)phenyl]ethanone]", "values": [{"measurement": "IC50", "setting": "[1]", "result": "1 to 10", "unit": "µM"}, {"measurement": "Insulin Secretion Inhibition Index", "setting": "[2]", "result": 2}, {"measurement": "Food Consumption", "setting": "[3]; 60 mg/kg in diet, P ≤ 0.05", "result": "82 ± 3 % of control"}, {"measurement": "Insulin", "setting": "[3]; 60 mg/kg in diet, not marked significant", "result": "66 ± 16 % of control"}, {"measurement": "Body Weight Gain", "setting": "[3]; 60 mg/kg in diet, P ≤ 0.05", "result": -25, "unit": "g"}, {"measurement": "Food Consumption", "setting": "[3]; 87 mg/kg in diet, P ≤ 0.05", "result": "84 ± 1 % of control"}, {"measurement": "Insulin", "setting": "[3]; 87 mg/kg in diet, P ≤ 0.05", "result": "32 ± 5 % of control"}, {"measurement": "Body Weight Gain", "setting": "[3]; 87 mg/kg in diet, P ≤ 0.05", "result": -32, "unit": "g"}, {"measurement": "Food Consumption", "setting": "[3]; 113 mg/kg in diet, P ≤ 0.05", "result": "74 ± 1 % of control"}, {"measurement": "Insulin", "setting": "[3]; 113 mg/kg in diet, P ≤ 0.05", "result": "24 ± 1 % of control"}, {"measurement": "Body Weight Gain", "setting": "[3]; 113 mg/kg in diet, P ≤ 0.05", "result": -74, "unit": "g"}]}]}
